# Source: patent US8080370B2, “Screening method for prophylactic and/or therapeutic agent for disease accompanied by hepatitis C” (Osaka University, priority 2006, dated 2011)
# Tested on: SREBP-1c promoter
# Experiment: SREBP-1c promoter dual luciferase reporter assay in HEK293T cells with RXRα/LXRα ligands
# Assay type: cell-based, human
# Settings: ligand(s) in culture solution for 24 hours, firefly relative to Renilla luciferase
# From the text: A genome DNA fragment coding the SREBP-1c promoter region (located in residues −410 to +24 base region) from mouse genome was amplified, and the resulting fragment was inserted into KpnI and HindIII sites in pGL3-Basic (manufactured by Promega Corporation), to give pGL3-SREBP-1cPro (FIG. 4a).
# Human embryonic kidney cells (HEK293T: cell expressing endogenous […] ) were transformed with the control plasmid coding pGL3-srebp-1cPro and Renilla luciferase (manufactured by Promega Corporation) and together with any one plasmid of (i) vacant plasmid, (ii) plasmid coding the HCV core protein, (iii) plasmid coding RXRα and LXRα, and (iv) plasmid coding RXRα, LXRα and the HCV core protein. The transformant obtained was cultivated in a culture solution containing a RXRα's ligand 9-cis-retinoic acid (9cisRA; product of Sigma Corporation), a LXRα's ligand 22(R)-hydroxycholesterol (22(R)HC), or both of them as additives for 24 hours, and then, the cells were collected; the luciferase activity of the cells was determined, similarly to (1) above, by using the dual luciferase reporter assay system (manufactured by Promega Corporation).
row,Compound,SREBP-1c promoter activity by the HCV core protein (luciferase activity)
1,9-cis-retinoic acid,increase in SREBP-1c promoter activity
2,CC(C)CC[C@@H](O)[C@@H](C)[C@H]1CC[C@H]2[C@@H]3CC=C4C[C@@H](O)CC[C@]4(C)[C@H]3CC[C@]12C [22(R)-hydroxycholesterol],increase in SREBP-1c promoter activity
